Entries after “also recorded” stand apart in the source; their conditions may differ.
Legend:
Format in all cases: in vivo, human
[1] = Phase 1 plasma pharmacokinetics, CYP2D6 poor metabolizer cohort; conditions: single 10 mg
Method: CYP2D6 poor metabolizer cohort.
CYP2D6 genotypes were determined at screening for all study participants; those identified as CYP2D6-PMs were excluded from the SAD and MAD cohorts but were invited to participate in the CYP2D6-PM cohort. The first individual in the CYP2D6-PM cohort was dosed after the SAD 25-mg cohort (FIG. 2). […] Nine participants were randomized (7:2) with a sentinel dosing group consisting of the first 2 participants treated.
Pharmacokinetic analyses. For all study groups, blood samples for PK assessment were obtained pre-dose, up to 12 times daily on day 1, and then at regular intervals throughout the study. Blood samples were collected according to the following schedule: SAD Cohorts: Day 1: pre-dose and 0.25, 0.5, 1, 1.5, 2, 2.5, 3, 4, 6, 8, 12, 16, 24, 36, 48, 72, 96, and 216 h post dose. MAD Cohorts (14-day Dosing): Day 1: pre-dose and 0.25, 0.5, 1, 1.5, 2, 2.5, 3, 4, 6, 8, and 12 h post dose; Days 2, 4, 5, 6, and 9: pre-dose (corresponding to trough samples following dosing on days 1, 3, 4, 5, and 8) and 1.5 h post dose; Days 3, 7, 8, 10, 11, 12, and 13: pre-dose (corresponding to trough samples following dosing on days 2, 6, 7, 9, 10, 11, and 12); Day 14: pre-dose and 0.25, 0.5, 1.5, 2, 2.5, 3, 4, 6, 8, 12, 16, 24, 36, 48, 72, and 168 h post dose. MAD Cohort (17-Day Dosing): Day 1: pre-dose and 0.25, 0.5, 1, 1.5, 2, 2.5, 3, 4, 6, 8, and 12 h post dose; Days 2, 4, 5, 6, and 9: pre-dose (corresponding to trough samples following dosing on days 1, 3, 4, 5, and 8) and 1.5 h post dose; Days 3, 7, 8, 10, 11, 12, 13, 14, 15, and 16: pre-dose (corresponding to trough samples following dosing on days 2, 6, 7, 9, 10, 11, and 12); Day 17: pre-dose and 0.25, 0.5, 1.5, 2, 2.5, 3, 5, 7, 9, 12, 24, 36, 48, 72, and 168 h post dose. CYPD6-PM Cohort: Day 1: pre-dose and 0.25, 0.5, 1, 1.5, 2, 2.5, 3, 4, 6, 8, 12, 16, 24, 36, 48, 72, 96, 216, 312, and 552 h post dose. Food-Effect Cohort: Day 1: pre-dose and 0.25, 0.5, 1, 1.5, 2, 2.5, 3, 4, 6, 8, 12, 16, 24, 36, 48, 72, 96, 144, and 216 h post dose. Standard non-compartmental methods were used to calculate PK parameters using Phoenix® WinNonlin® Version 7.0; actual sample collection times were utilized.

[2] = Phase 1 plasma pharmacokinetics, food-effect cohort; conditions: 10 mg; for AUCinf / AUC24 / Cmax: geometric mean; for CL/F / t1/2: mean ± SD
Method: Food-effect cohort. […] Participants were randomized in a 1:1 ratio to 1 of 2 sequences: fasted/fed or fed/fasted.
Pharmacokinetic analyses. For all study groups, blood samples for PK assessment were obtained pre-dose, up to 12 times daily on day 1, and then at regular intervals throughout the study. Blood samples were collected according to the following schedule: SAD Cohorts: Day 1: pre-dose and 0.25, 0.5, 1, 1.5, 2, 2.5, 3, 4, 6, 8, 12, 16, 24, 36, 48, 72, 96, and 216 h post dose. […] CYPD6-PM Cohort: Day 1: pre-dose and 0.25, 0.5, 1, 1.5, 2, 2.5, 3, 4, 6, 8, 12, 16, 24, 36, 48, 72, 96, 216, 312, and 552 h post dose. Food-Effect Cohort: Day 1: pre-dose and 0.25, 0.5, 1, 1.5, 2, 2.5, 3, 4, 6, 8, 12, 16, 24, 36, 48, 72, 96, 144, and 216 h post dose. Standard non-compartmental methods were used to calculate PK parameters using Phoenix® WinNonlin® Version 7.0; actual sample collection times were utilized.

[3] = tested on: patients with symptomatic non-obstructive HCM (nHCM) or HCM with MVO; assay: Phase 2 trial (Example 2): patient-reported outcomes (KCCQ-CSS, SAQ-AF)
Text: Health Status and Health-related Quality of Life: when available, patients completed patient-reported outcome (PRO) questionnaires prior to dosing at Day 1, at Week 6, at Week 10 and at Week 12. The following instruments were be used at these visits: by Short Form 36 physical function sub-scale (SF-36-PFS), Kansas City Cardiomyopathy Questionnaire Clinical Summary Score (KCCQ-CSS), SAQ7, PGI-C (Week 10 only), and CGI (Week 10 only).
The exploratory health status and health-related quality of life endpoints included but were not limited to change from baseline to Week 10 and a slope of change from baseline to Week 10 in: (i) T-scores for PROMIS Dyspnea Severity Short Form 10a, PROMIS Dyspnea Severity Short Form 10a with two additional items, PROMIS Fatigue Short Form 7a, and PROMIS Physical Function Short Form 8b; (ii) Norm-based T scores for SF-36 Physical Functioning subscale; (iii) Individual responses to the HCM Global Impression of Status questionnaire at baseline, Week 6, and Week 10; (iv) Individual responses to the HCM Global Impression of Change questionnaire at Week 6 and Week 10; (v) Change in KCCQ score from baseline to Week 10; and (vi) Change in SAQ7 score from baseline to Week 10.

[4] = CYP2D6 poor metabolizers, geometric mean, n = 7
[5] = CYP2D6 poor metabolizers, mean ± SD, n = 7
[6] = food-effect cohort, Fasted, n = 4
[7] = food-effect cohort, Fasted, n = 10
[8] = food-effect cohort, Fed, n = 12

CCc1nc(-c2ccc3c(c2)CC[C@H]3NC(=O)c2cnn(C)c2)no1 [aficamten, (R)—N-(5-(5-ethyl-1,2,4-oxadiazol-3-yl)-2,3-dihydro-1H-inden-1-yl)-1-methyl-1H-pyrazole-4-carboxamide]
AUC24 [1, 4]: 495 ng·h/mL
AUCinf [1, 4]: 2966 ng·h/mL
Cmax [1, 4]: 57.3 ng/mL
CL/F [1, 5]: 3.6 ± 1.4 L/h
t1/2 [1, 5]: 110 h
impact of CYP2D6-PM phenotype on pharmacokinetics ([1]; versus extensive metabolizers): Neither food nor CYP2D6-PM phenotype had a clinically meaningful impact; also recorded: did not appear to have reduced clearance
effect of food on pharmacokinetics ([2]; fed (high-fat breakfast) versus fasted): Neither food nor CYP2D6-PM phenotype had a clinically meaningful impact; also recorded: little effect on AUC; also recorded: no significant effect of food
increase in Cmax when taken with food ([2]; fed versus fasted): approximately 30%
AUCinf [2, 6]: 3674 ng·h/mL
AUC24 [2, 7]: 601 (33) ng · h/ml
Cmax [2, 7]: 50.6 ng/mL
CL/F [2, 6]: 2.8 ± 0.6 L/h
t1/2 [2, 6]: 84.4 ± 16.4 h
Tmax ([2]; food-effect cohort, Fasted, median, n = 10): 2.3 h
AUCinf ([2]; food-effect cohort, Fed, n = 7): 3413 ng·h/mL
AUC24 [2, 8]: 631 (25) ng · h/ml
Cmax [2, 8]: 65.0 ng/mL
CL/F ([2]; food-effect cohort, Fed, n = 7): 3.1 ± 0.9 L/h
t1/2 ([2]; food-effect cohort, Fed, n = 7): 78.0 ± 8.1 h
patients improving KCCQ-CSS by ≥5 points ([3]; 21 patients, week 10, interim): 54%
improvement in KCCQ-CSS, median (IQR) ([3]; from baseline median (IQR) 69.8 (56.8, 83.9), interim): 7.3 (−1.0, 18.8) points
patients with clinical reduction in symptom burden (KCCQ-CSS) ([3]; week 10, second interim): 58%
improvement in mean KCCQ-CSS ([3]; week 10, second interim, p<0.0001): 10.6 points

Source: patent US20240091203A1, “METHODS FOR TREATING NON-OBSTRUCTIVE HYPERTROPHIC CARDIOMYOPATHY” (Cytokinetics, Incorporated, priority 2022, published 2024)
